Reference: patent publication US20020099241A1, “Alpha-sulfin-and alpha-sulfonamino acid amides” (priority 1998, published 2002)

Legend:
[1] = tested on: Plasmopara viticola; test: D-1: Action against Plasmopara viticola on vines (residual-protective and residual-curative); type: in vivo; settings: vine seedlings, spray mixture 0.02% active ingredient, evaluated 6 days after infection; protective/curative not distinguished
Description: D-1: Action Against Plasmopara viticola on Vines a) Residual-Protective Action
Vine seedlings are sprayed at the 4- to 5-leaf stage with a spray mixture (0.02% active ingredient) prepared from a wettable powder formulation of the test compound. After 24 hours, the treated plants are infected with a sporangia suspension of the fungus. Fungus infestation is evaluated after incubation for 6 days at 95-100% relative humidity and 20° C. […]
b) Residual-Curative Action
Vine seedlings are infected at the 4- to 5-leaf stage with a sporangia suspension of the fungus. After incubation for 24 hours in a humidity chamber at 95-100% relative humidity and 20° C., the infected plants are dried and sprayed with a spray mixture (0.02% active ingredient) prepared from a wettable powder formulation of the test compound. After the spray coating has dried, the treated plants are placed in the humidity chamber again. Fungus infestation is evaluated 6 days after infection.

[2] = tested on: Phytophthora; test: D-2: Action against Phytophthora on tomato plants (residual-protective and systemic); type: in vivo; settings: spray or soil watering 0.02% active ingredient, evaluated 4-5 days after infection, protective/systemic not distinguished
Description: D-2: Action Against Phytophthora on Tomato Plants
(§1) a) Residual-Protective Action
(§2) After a cultivation period of 3 weeks, tomato plants are sprayed with a spray mixture (0.02% active ingredient) prepared from a wettable powder formulation of the test compound. After 48 hours, the treated plants are infected with a sporangia suspension of the fungus. Fungus infestation is evaluated after incubation of the infected plants for 5 days at 90-100% relative humidity and 20° C.
as §2, with “watered” for “sprayed”, “ingredient based on the volume of the soil)” for “ingredient)”, “compound. […]” for “compound.”, “96” for “48”, “4” for “5”

[3] = tested on: Phytophthora; test: D-3: Action against Phytophthora on potato plants (residual-protective and systemic); type: in vivo; settings: potato plants (Bintje variety), spray or soil watering 0.02% active ingredient, evaluated 4 days after infection; protective/systemic not distinguished
Description: D-3: Action Against Phytophthora on Potato Plants
as §1
(§3) 2-3 week old potato plants (Bintje variety) are sprayed with a spray mixture (0.02% active ingredient) prepared from a wettable powder formulation of the test compound. After 48 hours, the treated plants are infected with a sporangia suspension of the fungus. Fungus infestation is evaluated after incubation of the infected plants for 4 days at 90-100% relative humidity and 20° C.
as §3, with “watered” for “sprayed”, “ingredient based on the volume of the soil)” for “ingredient)”, “compound. […]” for “compound.”, “C. Fungal infestation is effectively controlled with compounds of Tables 1 to 37.” for “C.”

SMILES | Fungus infestation [1] | Fungus infestation [2] | Fungus infestation [3] | melting point [°C]
CCS(=O)(=O)N[C@H](C(=O)NCCc1ccc(OCC(C)c2ccc(F)cc2)c(OC)c1)C(C)C (stereo partly drawn) [Compound A1.01, (S)-2-Ethanesulfonylamino-N-(2-{4-[2-(4-fluoro-phenyl)-propoxy]-3-methoxy-phenyl}-ethyl)-3-methyl-butyramide] | completely inhibit fungal infestation | completely inhibit fungal infestation | completely inhibit fungal infestation | 107 to 111
COc1cc(CCNC(=O)[C@@H](NS(C)(=O)=O)C(C)C)ccc1OCCCc1ccc(Cl)cc1 |  |  |  | 128 to 130
CCS(=O)(=O)N[C@H](C(=O)NCCc1ccc(OCCCc2cccc(C(F)(F)F)c2)c(OC)c1)C(C)C |  |  |  | 119 to 120
